In brackets after ≈: the same amount, converted by molar mass. Like-named read-outs stand apart in the source and are kept apart here.
What was measured:
[1] = test system: S. aureus ATCC 29213; assay: In vitro susceptibility, broth microdilution MIC; type: cell-based, Staphylococcus aureus; settings: Staphylococcus aureus, read-out: MIC
Method: The antimicrobial activities of PK inhibitor candidates were determined using the 96-well microtiter standard 2-fold serial broth microdilution method as described by CLSI (formerly NCCLS) with the various gram-positive and gram-negative bacteria species mentioned above. Bacteria from a single colony were grown, overnight in either BHI Broth (VRE), mueller hinton broth (S. aureus 29213; MRSA USA400) or L-broth (E. coli, P. aeruginosa, S. typhimuriu, K. Pneumonia and A. baumannii). […] Culture plates were incubated for 18-24 h at 37° C., and optical density at 600 nm (OD600) was measured using a Benchmark Plus™ microplate spectrophotometer (Bio-Rad™). The absorbance control values for the series containing CAMHB and inhibitor were subtracted as background from the corresponding infected wells. The MIC was defined as the lowest concentration of test compound leading to complete inhibition of cell growth in relationship to compound-free control wells as determined by optical density. […] All assays were run in triplicate (Tables 1-6) or duplicate. Experiments were replicated at least twice to verify reproducibility using the above conditions.

[2] = target: T1, MRSA PK (Staphylococcus aureus, UniProt Q6GG09); assay: MRSA PK activity, continuous LDH-coupled assay; type: biochemical, S. aureus (MRSA strain Sanger 252)
T1 construct: His tag (pET-28a(+) vector) (N); made in house; host or cells: E. coli BL-21 (DE3)
T1 sequence (Q6GG09 whole entry): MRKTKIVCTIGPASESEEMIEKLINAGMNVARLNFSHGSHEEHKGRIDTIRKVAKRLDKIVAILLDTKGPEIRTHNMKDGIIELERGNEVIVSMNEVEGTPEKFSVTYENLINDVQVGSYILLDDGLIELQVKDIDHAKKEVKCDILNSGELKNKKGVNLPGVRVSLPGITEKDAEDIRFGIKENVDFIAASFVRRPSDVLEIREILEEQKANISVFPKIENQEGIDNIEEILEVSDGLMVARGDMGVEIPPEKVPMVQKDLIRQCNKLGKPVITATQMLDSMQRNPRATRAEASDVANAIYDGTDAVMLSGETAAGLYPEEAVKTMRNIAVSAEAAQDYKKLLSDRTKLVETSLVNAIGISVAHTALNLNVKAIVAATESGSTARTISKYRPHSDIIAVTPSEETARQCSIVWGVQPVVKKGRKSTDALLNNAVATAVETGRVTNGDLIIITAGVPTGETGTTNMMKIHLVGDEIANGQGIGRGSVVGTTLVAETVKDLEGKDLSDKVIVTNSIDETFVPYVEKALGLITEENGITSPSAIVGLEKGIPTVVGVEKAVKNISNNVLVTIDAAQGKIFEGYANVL
From the text: Genomic DNA of MRSA strain Sanger 252 extracted using DNeasy Tissue Kit™ (Qiagen™) was used as a template to generate the His-tagged MRSA PK. Human cDNA from MCF-7 breast cancer cell line (courtesy of Dr. J Wong, BC Cancer Research Center (Vancouver, Canada) was used as a template to generate the full-length human M2 PK enzyme. The following primer sets were used creating appropriate restriction sites (NdeI and XhoI sites underlined): For cloning of MRSA PK: M27F 5′-[…]-3′ and M27R 5′-[…]-3′, for cloning of human M2 PK isoform: hM2F 5′-[…]-3′ and hM2R 5′-[…]-3′. The resulting PCR fragments for each construct were cloned into the NdeI and XhoI unique sites of the bacterial expression vector pET-28a (+) (Novagen™). […] The sequence and the correct reading frame of all constructs were verified by sequencing. Human M1, R and L PK constructs in pET-28-a(+) vectors (courtesy of Dr. L. Cantley, Harvard Medical, School (Boston, USA)) were used to generate relevant recombinant His-tagged human PK isoforms.
MRSA and human constructs in pET-28a(+) were used to express relevant recombinant PK proteins in E. coli BL-21 (DE3). The proteins were expressed and purified using Ni-NTA agarose (Qiagen™) according to the manufacturer's protocol. Briefly, cells were grown to an absorbance of 0.4-0.5 at 600 nm in 2×YT medium, then induced with 0.1 mM IPTG for 3 h at 20° C. Cells were lysed by sonication on ice (3×10-s bursts with a 30-s recovery between bursts) in lysis buffer (0.2 mg/ml lysozyme, 50 mM Tris pH 7.5, 10 mM MgCl2, 200 mM NaCl, 100 mM KCl, 10% glycerol, 10 mM imidazole, 0.5% NP-40 and 1 mM DTT containing Complete™ protease inhibitor). Cell lysates were cleared by centrifugation (18,000×g in a Beckman™ JA-20 rotor) for 20 min at 4° C. and PK isoforms were purified by batch binding to Ni-NTA resin. The resins were then packed in columns (1×2 cm) and washed with 400 column volumes lysis buffer containing 30 mM imidazole. His-tagged PK isoforms were eluted with the same buffer containing 300 mM imidazole. The proteins were dialyzed overnight at 4° C. against 2000 volumes of ice-cold 30 mM Tris pH 7.5, 25 mM KCl, 5 mM MgCl2, 10% glycerol and 1 mM DTT to remove imidazole. All purification steps were done at 4° C.; enzymes were flash-frozen and stored at −70° C. […] Purity and physical integrity of proteins were assessed using SDS-polyacrylamide gel electrophoresis (SDS-PAGE) followed by coomassie blue staining. Protein concentration was estimated by Bradford assay (Bio-Rad Protein Assay™) using bovine serum albumin as a standard.
Candidate MRSA PK inhibitors were assayed for their ability to inhibit enzymatic activities of MRSA and human PKs. PK activity was determined using a continuous assay coupled to lactate dehydrogenase (LDH) in which the change in absorbance at 340 nm owing to oxidation of NADH was measured using a Benchmark Plus™ microplate spectrophotometer (Bio-Rad Laboratories, Hercules, Calif.). […] Reactions were initiated by the addition of 15 nM of one of the PK enzymes. PK activity proportional to the rate of change at 340 nm was expressed as specific activity (μmol/min/mg), which is defined as the amount of PK that catalyzes the formation of one micromole of either product per minute. Inhibitors were dissolved in DMSO with the final concentration of the solvent never exceeding 1% of the assay volume. IC50 values were calculated by curve fitting on a four-parameter dose-response model with variable slope using Graphpad Prism 5.0™ (GraphPad™ Software Inc., La Jolla, Calif.). […] Reactions were performed at 30° C. for up to 5 min. All values determined represent at least two measurements, in triplicate (Tables 1-6) or duplicate unless mentioned otherwise.

[3] = ATCC29213, Tables 1-6 and text, minimum concentration to give >98% inhibition of growth
[4] = read-out: % inhibition at the highest concentration tested (IC50)
[5] = Tables 1-6, 2 mM ADP, 10 mM PEP, 15 nM PK, read-out: IC50
[6] = ATCC29213, Table 8, tested at least in duplicate, differing values all given

Compound | MIC [1, 3] [µg/mL] | MIC [1, 6] [µg/mL] | IC50 [2] [nM] | further results
c1ccc2[nH]c(-c3ccc(-c4cc5ccccc5[nH]4)cc3)cc2c1 [Compound 46] | > 16 | – | – | inhibition at 10 µM [2, 4]: 52%
O=C(Nc1cccc(Br)c1O)c1cc2ccc(Br)cc2[nH]1 [Compound 64, 6-Bromo-N-(3-bromo-2-hydroxyphenyl)-1H-indole-2-carboxamide] | > 64 | – | – | IC50 [2, 5]: 116 nM
COc1ccc(NC(=O)c2[nH]c3cc(Br)ccc3c2C(=O)O)cn1 [Compound 136, 6-Bromo-2-((6-methoxypyridin-3-yl)carbamoyl)-1H-indole-3-carboxylic acid] | – | > 64 | 100 to 1000 | –
Brc1ccc2cc(CCc3cn4c(n3)CCCC4)[nH]c2c1 [Compound 126, 2-(2-(6-Bromo-1H-indol-2-yl)ethyl)-5,6,7,8-tetrahydroimidazo[1,2-a]pyridine] | – | 64 (≈ 186 µM) | > 100000 | –
Brc1ccc2cc(-c3ccc(-c4ccn[nH]4)s3)[nH]c2c1 [Compound 81, 2-(5-(1H-Pyrazol-5-yl)thiophen-2-yl)-6-bromo-1H-indole] | 0.5 (≈ 1.45 µM) | – | 74.5 | –
Fc1cc2cc(/C=C/c3ccc(Cl)cc3)[nH]c2cc1Br [Compound 161, (E)-6-Bromo-2-(4-chlorostyryl)-5-fluoro-1H-indole] | – | > 64 | < 50 | –
COc1ccc(NC(=O)c2[nH]c3cc(Br)ccc3c2C(=O)O)cc1 [Compound 134, 6-Bromo-2-((4-methoxyphenyl)carbamoyl)-1H-indole-3-carboxylic acid] | – | 64 (≈ 164 µM) | < 50 | –
O=C(Nc1nc2ccc(Br)cc2[nH]1)c1cc2ccc(Br)cc2[nH]1 [Compound 80, 6-Bromo-N-(6-bromo-1H-benzo[d]imidazol-2-yl)-1H-indole-2-carboxamide] | > 64 | – | 1.5 | –
Clc1cccc(/C=C/c2cc3ccc(Br)cc3[nH]2)c1 [Compound 96, (E)-6-Bromo-2-(3-chlorostyryl)-1H-indole] | – | > 64 | 100 to 1000 | –
Cc1c(/C=C/c2ccc(Cl)cc2)[nH]c2cc(Br)ccc12 [Compound 160, (E)-6-bromo-2-(4-chlorostyryl)-3-methyl-1H-indole] | – | > 64 | < 50 | –
Brc1ccc2[nH]c(-c3ccc(-c4cc5ccc(Br)cc5[nH]4)s3)cc2c1 [Compound 47, 6-Bromo-2-(5-(5-bromo-1H-indol-2-yl)thiophen-2-yl)-1H-indole] | > 64 | – | – | inhibition at 10 µM [2, 4]: 52%
O=C(Nc1nc2ccc(Br)cc2s1)c1ccccc1O [Compound 66] | > 64 | – | – | inhibition at 10 µM [2, 4]: 59%
O=C(Nc1nc2ccc(Br)cc2s1)c1cc2ccccc2[nH]1 [Compound 54, N-(6-Bromobenzo[d]thiazol-2-yl)-1H-indole-2-carboxamide] | > 64 | – | – | IC50 [2, 5]: 11.1 nM
O=C(O)c1cc(Br)cc2[nH]c(/C=C/c3ccc(Cl)cc3)cc12 [Compound 158, (E)-6-Bromo-2-(4-chlorostyryl)-1H-indole-4-carboxylic acid] | – | 32 (≈ 85 µM) | > 1000 | –
O=C(Nc1nc2ccc(Br)cc2s1)c1cccc(Br)c1O [Compound 70, 3-Bromo-N-(6-bromobenzo[d]thiazol-2-yl)-2-hydroxybenzamide] | 4 (≈ 9.34 µM) | – | – | IC50 [2, 5]: 42.9 nM
Brc1ccc2[nH]c(C#Cc3cc4cc(Br)ccc4[nH]3)cc2c1 [Compound 45, 1,2-bis(5-Bromo-1H-indol-2-yl)ethyne] | > 64 | – | – | inhibition at 10 µM [2, 4]: 60%
O=C(Nc1ccc(Br)cc1)c1cc2ccc(Br)cc2s1 [Compound 71, 6-bromo-N-(4-bromophenyl)benzo[b]thiophene-2-carboxamide] | > 64 | – | – | inhibition at 10 µM [2, 4]: 55%
Brc1ccc2cc(/C=C/c3ccc4ccccc4n3)[nH]c2c1 [Compound 101, (E)-2-(2-(6-bromo-1H-indol-2-yl)vinyl)quinoline] | > 64 | > 64 | > 1000 | –
CC(=O)c1c(-c2cc3ccccc3[nH]2)[nH]c2cc(Br)ccc12 [Compound 91, 1-(6-bromo-1H,1′H-[2,2′-biindol]-3-yl)ethan-1-one] | 4 (≈ 11.3 µM) | – | 7.7 | –
Clc1cnc(/C=C/c2cc3ccc(Br)cc3[nH]2)cn1 [Compound 118, (E)-6-Bromo-2-(2-(5-chloropyrazin-2-yl)vinyl)-1H-indole] | – | 16 (≈ 47.8 µM) | 50 to 100 | –
Brc1ccc2cc(-c3ccc(-c4cc5ccc(Br)cc5[nH]4)s3)[nH]c2c1 [Compound 33b, 2,5-bis(6-bromo-1H-indol-2-yl)thiophene] | > 64 | – | – | inhibition at 1 µM [2, 4]: 28%
Clc1ccc(/C=C/c2cc3ccc(Br)cc3[nH]2)cn1 [Compound 98, (E)-6-Bromo-2-(2-(6-chloropyridin-3-yl)vinyl)-1H-indole] | – | > 64 | < 50 | –
O=C(Nc1ccc(Cl)nc1)c1[nH]c2cc(Br)ccc2c1C(=O)O [Compound 139, 6-Bromo-2-((6-chloropyridin-3-yl)carbamoyl)-1H-indole-3-carboxylic acid] | – | > 64 | 50 to 100 | –
Cc1ccc(/C=C/c2cc3ccc(Br)cc3[nH]2)cn1 [Compound 106, (E)-6-Bromo-2-(2-(6-methylpyridin-3-yl)vinyl)-1H-indole] | – | > 64 | > 1000 | –
Brc1ccc(/C=C/c2cc3ccc(Br)cc3[nH]2)nc1 [Compound 99, (E)-6-Bromo-2-(2-(5-bromopyridin-2-yl)vinyl)-1H-indole] | – | 32 (≈ 84.6 µM) | 50 to 100 | –
CC(C)C(=O)c1c(CCc2ccc(Cl)cc2)[nH]c2cc(Br)ccc12 [Compound 39c, 1-(6-bromo-2-(4-chlorophenethyl)-1H-indol-3-yl)-2-methylpropan-1-one] | 4 (≈ 9.88 µM) | – | 28 | –
COC(=O)c1cc(Br)cc2[nH]c(-c3cc4c(C(=O)OC)cc(Br)cc4[nH]3)cc12 [Compound 163, Dimethyl 6,6′-dibromo-1H,1′H-[2,2′-biindole]-4,4′-dicarboxylate] | – | > 64 | 50 to 100 | –
Brc1ccc(-c2cncc(-c3cc4ccccc4[nH]3)n2)cc1 [Compound 60, 2-(6-(4-Bromophenyl)pyrazin-2-yl)-1H-indole] | > 64 | – | – | inhibition at 10 µM [2, 4]: 79%
Brc1ccc2cc(CCc3cn4ccccc4n3)[nH]c2c1 [Compound 125, 2-(2-(6-Bromo-1H-indol-2-yl)ethyl)imidazo[1,2-a]pyridine] | – | > 64 | > 1000 | –
